Results on ten compounds are retold here after patent US10654866B2, “Selective estrogen receptor degraders” (Eli Lilly and Company, priority 2018, dated 2020).

Where two headings read alike, the source gives them in different places.

A word on the IC50: it is the concentration needed to halve the response being measured. As a reminder, the Ki is a measure of affinity in units of concentration, obtained from inhibition or displacement.

In test [1] the target is Y537N mutant ERα receptor (Homo sapiens, UniProt P03372, Y537N). In words: PRα inhibition (ERα functional antagonism) cell assay in MCF7-ESR1 Y537N 682 CRISPR cells. In kind it is cell-based. The following applies: MCF7 Y537N 682 CRISPR cells, 72 hours, % PR positive cells; read-out: Relative IC50. As for the experimental part: An antagonist in this assay is expected to block the function of the ERα receptor.
Incubate the cells overnight in a cell culture incubator (5% CO2, 95% relative humidity and 37° C.) and allow the cells to attach to the plate. The following day dose the cells with the test compound. Use an Echo 555 acoustic dispenser to prepare compound serial dilutions (1:3) in a range from 6 μM to 0.0003 μM. Dose the cells with the addition of 5 μL from the serial dilution plate to the cell plate producing a final DMSO concentration of 0.2% with a final test compound concentration dose range between 2 and 0.0001 μM. For the maximum point use media containing 0.2% of DMSO and for the minimum point, use fulvestrant diluted at 2 μM final concentrations in the growth media containing 0.2% DMSO. After dosing with test compound, incubate the cell plates at 37° C. and 5% CO2 for 72 hours. Fix the cells by adding 14% para-formaldehyde (10 μL) for 30 minutes at room temperature. Wash the cells with PBS (1×20 μL) and incubate with PBS (20 μL) of containing 0.5% (v/v) TWEEN® 20 for 1 hour. Wash the cells with PBS (2×20 μL) 0.05% TWEEN® 20, and block with 3% BSA/PBS 0.05% TWEEN® 20, 0.1% TRITON™ X-100 (20 μL/well) for 1 hour at room temperature. Add 1:500 primary antibody (20 μL) (PR monoclonal mouse anti-human antibody, clone PgR 636 Dako, M3569) dilution in 1% BSA/PBS 0.05 TWEEN® 20 per well, seal the plates and incubate overnight at 4° C.
The following day, wash the cells with PBS […] (2×20 μL) and incubate with secondary antibody (20 μL/well) (1:1000 dilution, Goat anti-rabbit IgM ALEXA FLUOR™ 488) in PBS 1% BSA for 105 minutes at room temperature. […] Seal the plates and incubate 1 hour at room temperature on the bench (preserved from light). Scan the plates with ACUMEN EXPLORER™ [Laser-scanning fluorescence microplate cytometer manufactured by TTP LABTECH LTD] to measure PRα. Image analysis is based on cellular fluorescent signals for identifying positive cells. Identify PR positive cells by mean intensity. Use total intensity at 575-640 nm from propidium iodide/DNA to identify individual cells. Assay output is % PR positive cells. Determine the IC50 by curve fitting to a four parameter logistic for each output using GENE DATA™.

The test system of test [2] is MCF7 ESR1 Y537N mutant cells. Briefly: Cell proliferation assay in MCF7-ESR1 Y537N-682. In kind it is cell-based, human. To be noted: seven days, read-out: Relative IC50 (μM) MCF7 ESR1 Y537N mutant cells. As for the experimental part:
Seed MCF7 (purchased from ATCC HTB-22) cells at a density of 2,000 cells per well in DMEM phenol red free media 10% FBS (20 μL volume) (charcoal stripped) into a clear bottom 384-well cell culture plate. Plate MCF7-ESRY537N-682 (generated by CRISPR/Cas9 gene editing of ESr1 gene in MCF7 cells, clone #682) in DMEM media supplemented with 10% FBS, and 1% penicillin/streptomycin antibiotics at a density of 1000 cells per well. Incubate the plates at 37° C. and 5% CO2. The following day dose the cells with the test compound. Use an Echo 555 acoustic dispenser to prepare test compound serial dilutions (1:3) in a range from 60 μM to 0.003 μM. Dose the cells with the addition of 5 μL from the serial dilution plate to the cell plate, producing a final DMSO concentration of 0.2% with a final test compound concentration dose range between 20 and 0.001 μM. For the maximum point use media containing 0.2% of DMSO and for the minimum point use fulvestrant diluted at 2 μM final concentrations in the growth media containing 0.2% DMSO. After dosing with the test compound, incubate the cell plates at 37° C. and 5% CO2. Seven days after test compound addition, remove the plates from the incubator and add cold EtOH 96% (65 μL) to each well. […] Seal the plates and incubate 1 hour at room temperature on the bench (preserved from light). Scan the plates with ACUMEN EXPLORER™ [Laser-scanning fluorescence microplate cytometer manufactured by TTP LABTECH LTD].

In a further test the target is ERα (Y537S mutant) (Homo sapiens (Human), UniProt P03372, Y537S). Briefly: ERα (Y537S mutant) competition binding assay. The following applies: 3H-estradiol competition; Ki from IC50 by Cheng-Prusoff. As for the experimental part: Add the test compound at 10 different concentrations ranging from 10,000 nM to 0.5 nM, and determine nonspecific binding in the presence of 1 μM of 1713 estradiol. Incubate the binding reaction (140 μL) for 4 hours at room temperature, and then add cold dextran-charcoal buffer (70 μL) (containing per 50 mL of assay buffer, 0.75 g of charcoal and 0.25 g of dextran) to each reaction. Mix the plates for 8 minutes on an orbital shaker at 4° C. and then centrifuge at 3000 rpm at 4° C. for 10 minutes. Transfer an aliquot (120 μL) of the mixture to another 96-well, white flat bottom plate (Costar) and add Perkin Elmer Optiphase Supermix scintillation fluid (175 μL) to each well. Seal the plates and shake vigorously on an orbital shaker. After an incubation of 2.5 hours, read the plates in a Wallac Microbeta counter. […] Convert the IC50 values for the compound to Ki using Cheng-Prusoff equation.
ERα (Y537S mutant), sequence (P03372 whole entry Y537S): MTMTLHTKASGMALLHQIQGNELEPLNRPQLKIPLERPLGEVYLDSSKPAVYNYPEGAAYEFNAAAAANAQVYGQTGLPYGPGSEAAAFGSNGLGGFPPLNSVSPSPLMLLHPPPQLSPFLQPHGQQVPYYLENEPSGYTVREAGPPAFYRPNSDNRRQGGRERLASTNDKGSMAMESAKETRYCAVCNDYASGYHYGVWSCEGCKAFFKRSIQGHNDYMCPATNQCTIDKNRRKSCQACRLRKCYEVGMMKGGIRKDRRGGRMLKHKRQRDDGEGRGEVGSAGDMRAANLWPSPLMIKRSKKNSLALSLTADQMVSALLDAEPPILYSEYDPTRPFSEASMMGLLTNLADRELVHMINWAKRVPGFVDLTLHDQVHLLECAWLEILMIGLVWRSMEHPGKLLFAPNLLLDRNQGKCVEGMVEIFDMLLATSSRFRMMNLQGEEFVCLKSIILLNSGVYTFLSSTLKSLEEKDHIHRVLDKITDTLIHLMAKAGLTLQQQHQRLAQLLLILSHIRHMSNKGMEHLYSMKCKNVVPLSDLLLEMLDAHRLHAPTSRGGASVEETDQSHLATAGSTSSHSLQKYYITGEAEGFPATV

In the case of `Oc1ccc2c3c(cnc2c1)-c1cccc(C(F)(F)F)c1OC3c1ccc(OCCN2CC(CF)C2)cc1` (racemic) [Example 2, 5-(4-{2-[3-(fluoromethyl)azetidin-1-yl]ethoxy}phenyl)-7-(trifluoromethyl)-5H-[1]benzopyrano[4,3-c]quinolin-2-ol], the IC50 is 14.5 ± 2.62 nM in test [1] and 0.0511 µM in test [2] (Homo sapiens, MCF7, […]). The Ki on ERα (Y537S mutant) came to 6.78 nM.
The corresponding values for `Oc1ccc2c3c(cnc2c1)-c1cccc(Cl)c1OC3c1ccc(OCCN2CC(CF)C2)cc1` (racemic) [Example 4, 7-chloro-5-(4-{2-[3-(fluoromethyl)azetidin-1-yl]ethoxy}phenyl)-5H-[1]benzopyrano[4,3-c]quinolin-2-ol] are 38.5 ± 3.87 nM, 0.0266 µM and 12.1 nM.
The corresponding values for `Oc1ccc2c3c(cnc2c1)-c1ccc(F)cc1OC3c1ccc(OCCN2CC(CF)C2)cc1` (racemic) [Example 5, 8-fluoro-5-(4-{2-[3-(fluoromethyl)azetidin-1-yl]ethoxy}phenyl)-5H-[1]benzopyrano[4,3-c]quinolin-2-ol] are 66.1 ± 15.5 nM, 0.0725 ± 0.0263 µM and 19.5 nM.
The corresponding values for `Oc1ccc2c3c(cnc2c1)-c1cccc(F)c1OC3c1ccc(OCCN2CC(CF)C2)cc1` (racemic) [Example 6, 7-fluoro-5-(4-{2-[3-(fluoromethyl)azetidin-1-yl]ethoxy}phenyl)-5H-[1]benzopyrano[4,3-c]quinolin-2-ol] are 63.2 ± 16.1 nM, 0.0236 µM and 15.8 nM.
`Cc1ccc2c(c1)OC(c1ccc(OCCN3CC(CF)C3)cc1)c1c-2cnc2cc(O)ccc12` (racemic) [Example 7, 5-(4-{2-[3-(fluoromethyl)azetidin-1-yl]ethoxy}phenyl)-8-methyl-5H-[1]benzopyrano[4,3-c]quinolin-2-ol]: the IC50 in test [1] was 127 nM; in test [2] (Homo sapiens, MCF7, […]), 0.0448 ± 0.0119 µM. For the same compound, on ERα (Y537S mutant), the Ki turned out to be 8.55 nM.
The corresponding values for `Cc1cccc2c1OC(c1ccc(OCCN3CC(CF)C3)cc1)c1c-2cnc2cc(O)ccc12` (racemic) [Example 8, 5-(4-{2-[3-(fluoromethyl)azetidin-1-yl]ethoxy}phenyl)-7-methyl-5H-[1]benzopyrano[4,3-c]quinolin-2-ol] are 41.2 ± 6.57 nM, 0.0329 ± 0.003 µM and 11.4 nM.
`Oc1ccc2c3c(cnc2c1)-c1ccc(C(F)(F)F)cc1OC3c1ccc(OCCN2CC(CF)C2)cc1` (single isomer, unassigned) [Example 1B, 5-(4-{2-[3-(Fluoromethyl)azetidin-1-yl]ethoxy}phenyl)-8-(trifluoromethyl)-5H-[1]benzopyrano[4,3-c]quinolin-2-ol]: in test [2], the IC50 is 0.0167 ± 0.0091 µM.
For the compound `Oc1ccc2c3c(cnc2c1)-c1cccc(C(F)(F)F)c1OC3c1ccc(OCCN2CC(CF)C2)cc1` (single isomer, unassigned) [Example 2A, 5-(4-{2-[3-(Fluoromethyl)azetidin-1-yl]ethoxy}phenyl)-7-(trifluoromethyl)-5H-[1]benzopyrano[4,3-c]quinolin-2-ol], the IC50 in test [1] was determined as 24.9 ± 7.39 nM; in test [2], 0.0428 ± 0.00267 µM. Besides, the Ki on ERα (Y537S mutant) worked out at 7.92 nM.
The corresponding values for `Oc1ccc2c3c(cnc2c1)-c1cccc(C(F)(F)F)c1OC3c1ccc(OCCN2CC(CF)C2)cc1` (single isomer, unassigned) [Example 2B, 5-(4-{2-[3-(Fluoromethyl)azetidin-1-yl]ethoxy}phenyl)-7-(trifluoromethyl)-5H-[1]benzopyrano[4,3-c]quinolin-2-ol] are 1640 ± 223 nM, 0.778 µM and 294 nM.
The corresponding values for `Oc1ccc2c3c(cnc2c1)-c1cccc(Cl)c1OC3c1ccc(OCCN2CC(CF)C2)cc1` (single isomer, unassigned) [Example 4A, 7-Chloro-5-(4-{2-[3-(fluoromethyl)azetidin-1-yl]ethoxy}phenyl)-5H-[1]benzopyrano[4,3-c]quinolin-2-ol] are 505 nM, 0.544 ± 0.218 µM and 55 nM.
